Reference: ChEMBL document CHEMBL1157515, “Discovery of a novel class of 2-ureido thiophene carboxamide checkpoint kinase inhibitors” (Bioorg Med Chem Lett, 2008)

What was measured:
[1] = biological target: T1, Serine/threonine-protein kinase Chk1 (Homo sapiens, UniProt O14757); assay: Inhibition of Chk1
T1 sequence (O14757 whole entry): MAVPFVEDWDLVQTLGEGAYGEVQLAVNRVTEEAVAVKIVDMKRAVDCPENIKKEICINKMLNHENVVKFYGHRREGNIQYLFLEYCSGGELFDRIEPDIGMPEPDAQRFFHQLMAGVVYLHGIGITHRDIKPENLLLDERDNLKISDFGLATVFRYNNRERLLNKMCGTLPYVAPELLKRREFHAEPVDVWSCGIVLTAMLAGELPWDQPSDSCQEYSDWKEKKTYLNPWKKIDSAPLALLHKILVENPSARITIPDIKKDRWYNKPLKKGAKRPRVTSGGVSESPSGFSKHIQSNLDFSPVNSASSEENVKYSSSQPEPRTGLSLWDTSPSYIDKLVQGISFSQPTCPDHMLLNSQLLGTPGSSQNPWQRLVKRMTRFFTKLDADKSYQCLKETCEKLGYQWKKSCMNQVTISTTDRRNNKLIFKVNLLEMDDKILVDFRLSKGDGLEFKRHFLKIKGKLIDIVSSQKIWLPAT

HT-29 = assay: Abrogation of camptothecin induced cell cycle arrest at G2/M phase in human HT29 cells; assay type: functional, cell-based
[2] = Inhibition of CYP; assay type: ADME
[3] = Lipophilicity, log D of the compound; assay type: physicochemical; conditions: octanol/water
[4] = Half life in dog; assay type: ADME, organism-based, Canis lupus familiaris; conditions: in vivo
[5] = Clearance in dog; assay type: ADME, organism-based, Canis lupus familiaris; conditions: in vivo
[6] = biological target: Voltage-gated inwardly rectifying potassium channel KCNH2 (Homo sapiens, UniProt Q12809); assay: Inhibition of human ERG
[7] = Solubility of the compound; assay type: physicochemical
[8] = Oral bioavailability in dog; assay type: ADME, organism-based, Canis lupus familiaris; conditions: in vivo
[9] = Half life in mouse; assay type: ADME, organism-based; conditions: in vivo
[10] = Clearance in mouse; assay type: ADME, organism-based; conditions: in vivo

Sequence of Voltage-gated inwardly rectifying potassium channel KCNH2 (Q12809 whole entry): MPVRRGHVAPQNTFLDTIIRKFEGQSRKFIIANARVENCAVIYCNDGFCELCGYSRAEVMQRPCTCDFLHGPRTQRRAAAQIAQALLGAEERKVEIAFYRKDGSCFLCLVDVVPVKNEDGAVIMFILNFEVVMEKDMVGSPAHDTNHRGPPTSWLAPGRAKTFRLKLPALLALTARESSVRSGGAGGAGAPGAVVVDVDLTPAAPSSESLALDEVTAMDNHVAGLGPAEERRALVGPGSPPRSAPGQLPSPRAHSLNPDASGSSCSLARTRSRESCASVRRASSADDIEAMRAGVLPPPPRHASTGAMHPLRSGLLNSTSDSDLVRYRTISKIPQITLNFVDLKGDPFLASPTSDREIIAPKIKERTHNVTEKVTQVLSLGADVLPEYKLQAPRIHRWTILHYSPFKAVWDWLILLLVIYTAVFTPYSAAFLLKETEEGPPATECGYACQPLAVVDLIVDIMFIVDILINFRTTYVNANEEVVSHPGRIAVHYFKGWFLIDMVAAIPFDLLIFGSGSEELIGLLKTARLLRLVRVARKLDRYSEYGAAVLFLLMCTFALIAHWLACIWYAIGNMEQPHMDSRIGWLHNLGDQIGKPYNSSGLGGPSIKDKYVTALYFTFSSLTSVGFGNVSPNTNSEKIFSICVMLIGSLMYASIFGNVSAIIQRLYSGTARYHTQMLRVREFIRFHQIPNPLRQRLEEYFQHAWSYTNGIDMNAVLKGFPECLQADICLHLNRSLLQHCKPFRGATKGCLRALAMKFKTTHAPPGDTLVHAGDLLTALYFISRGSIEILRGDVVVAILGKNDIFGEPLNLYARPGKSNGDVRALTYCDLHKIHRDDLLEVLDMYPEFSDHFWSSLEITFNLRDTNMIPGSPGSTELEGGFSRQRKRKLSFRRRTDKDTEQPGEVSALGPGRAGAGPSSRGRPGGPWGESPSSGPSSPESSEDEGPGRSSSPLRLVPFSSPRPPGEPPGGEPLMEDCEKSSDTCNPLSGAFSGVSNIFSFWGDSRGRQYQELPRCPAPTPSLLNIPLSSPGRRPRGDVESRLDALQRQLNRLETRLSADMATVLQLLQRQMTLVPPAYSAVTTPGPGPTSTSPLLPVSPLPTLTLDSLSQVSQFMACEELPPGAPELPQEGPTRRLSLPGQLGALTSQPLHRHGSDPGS

| Compound | IC50 [1] [nM] | EC50 (HT-29; Homo sapiens, HT-29) [nM] | other results |
| --- | --- | --- | --- |
| CNCc1ccc(-c2cc(C(N)=O)c(NC(N)=O)s2)cc1 | > 300 |  |  |
| CN(C)CCOc1ccc(-c2cc(C(N)=O)c(NC(N)=O)s2)cc1 |  | > 12500 |  |
| COc1ccc(-c2cc(C(N)=O)c(NC(N)=O)s2)cc1 | 5000 |  |  |
| CN(C)CCCOc1ccc(-c2cc(C(N)=O)c(NC(N)=O)s2)cc1 | 230 |  |  |
| NC(=O)Nc1sc(-c2ccc(OCCN3CCCCC3)cc2)cc1C(N)=O | 230 |  |  |
| NC(=O)Nc1sc(-c2ccc(OCCOCC3CC3)cc2)cc1C(N)=O | 23000 |  |  |
| COCCOCCOc1ccc(-c2cc(C(N)=O)c(NC(N)=O)s2)cc1 | 4100 |  |  |
| COCCOc1ccc(-c2cc(C(N)=O)c(NC(N)=O)s2)cc1 | 6700 |  |  |
| CN(CCN)C(=O)c1cc(-c2ccccc2)sc1NC(N)=O | 5500 |  |  |
| NC(=O)Nc1sc(-c2ccccc2)cc1C(=O)NC1CCOCC1 | 2100 |  |  |
| CN(C)CCNC(=O)c1cc(-c2ccccc2)sc1NC(N)=O | 110 | 4100 |  |
| NC(=O)Nc1sc(-c2ccccc2)cc1C(=O)NC1CCCCC1 | 3900 |  |  |
| NC(=O)Nc1sc(-c2ccccc2)cc1C(=O)Nc1ccccc1 | 1000 |  |  |
| NC(=O)Nc1sc(-c2ccccc2)cc1C(=O)NCC1CNCCO1 (stereo unspecified) | 300 |  |  |
| NC(=O)Nc1sc(-c2ccccc2)cc1C(=O)NC1CNCCNC1=O (stereo unspecified) | 110 |  |  |
| NC(=O)Nc1sc(-c2ccccc2)cc1C(=O)N[C@@H]1CN2CCC1CC2 | 130 |  |  |
| CN1CCC[C@@H](NC(=O)c2cc(-c3ccccc3)sc2NC(N)=O)C1 | 160 | 2300 |  |

| Compound | IC50 [1] [nM] | EC50 (HT-29; Homo sapiens, HT-29) [nM] | other results |
| --- | --- | --- | --- |
| NC(=O)Nc1sc(-c2ccccc2)cc1C(=O)N[C@H]1CCCNC1 |  |  | IC50 [2]: > 10 µM; logD [3]: 1.28; half-life [4]: 312 min; clearance [5]: 12.8 mL/min/kg; IC50 [6]: > 31.6 µM; solubility [7]: > 2000 µM; bioavailability [8]: 78.8%; half-life [9]: 90 min; clearance [10]: 35.7 mL/min/kg |
| COc1ccc(Nc2cc(-c3cccnc3)[nH]n2)cc1OC | 600 |  |  |
| NC(=O)Nc1sc(-c2cccnc2)cc1C(=O)N[C@H]1CCCNC1 | 6 |  | EC50 (HT-29; ht-29): 300 nM |
| NC(=O)Nc1sc(-c2ccncc2)cc1C(=O)N[C@H]1CCCNC1 | 4 |  | EC50 (HT-29; ht-29): 340 nM |
| NC(=O)Nc1sc(-c2ccccc2)cc1C(=O)NC1CCNCC1 | 110 |  |  |
| NC(=O)Nc1sc(-c2ccccc2)cc1C(=O)N1CCOCC1 | > 30000 |  |  |
| NC(=O)Nc1sc(-c2ccc(OC(F)(F)F)cc2)cc1C(N)=O | 2600 |  |  |
| CNCCOc1ccc(-c2cc(C(N)=O)c(NC(N)=O)s2)cc1 | 360 |  |  |
| NC(=O)Nc1sc(-c2ccccc2)cc1C(=O)NC1CCCCNC1=O (stereo unspecified) | 23000 | > 13000 |  |
| NC(=O)Nc1sc(-c2ccccc2)cc1C(=O)NCCO | 5100 |  |  |
| NC(=O)Nc1sc(-c2ccccc2)cc1C(=O)N[C@H]1CN2CCC1CC2 | 980 |  |  |
| NC(=O)Nc1sc(-c2ccccc2)cc1C(=O)NCc1ccccc1 | > 10000 |  |  |
| NC(=O)Nc1sc(-c2cccc(F)c2)cc1C(=O)N[C@H]1CCCNC1 | 11 |  | EC50 (HT-29; ht-29): 20 nM |
| CN1CCN(C(=O)c2cc(-c3ccccc3)sc2NC(N)=O)CC1 | 7100 |  |  |
| CCN(CC)CCOc1ccc(-c2cc(C(=O)NC3CCCNC3)c(NC(N)=O)s2)cc1 (stereo unspecified) |  | 17 |  |
| NC(=O)Nc1sc(-c2ccccc2)cc1C(=O)N[C@@H]1CCCNC1 |  |  | EC50 (HT-29; ht-29): 1900 nM |

The next lines start with results.

| IC50 [1] [nM] | EC50 (HT-29; Homo sapiens, HT-29) [nM] | Compound | other results |
| --- | --- | --- | --- |
| 50 | > 12500 | CCN(CC)CCOc1ccc(-c2cc(C(=O)Nc3cccc(CO)c3)c(NC(N)=O)s2)cc1 |  |
| 72 |  | COCCNCc1ccc(-c2cc(C(N)=O)c(NC(N)=O)s2)cc1 |  |
| 31 |  | CN(CCO)Cc1ccc(-c2cc(C(N)=O)c(NC(N)=O)s2)cc1 |  |
| 39 |  | NC(=O)Nc1sc(-c2ccc(CNC3CCCC3)cc2)cc1C(N)=O |  |
| 7 | 1200 | NC(=O)Nc1sc(-c2ccc(O)cc2)cc1C(=O)N[C@H]1CCCNC1 |  |
| 9 | 80 | NC(=O)Nc1sc(-c2ccccc2F)cc1C(=O)N[C@H]1CCCNC1 |  |
| 100 | 580 | CNCCNC(=O)c1cc(-c2ccccc2)sc1NC(N)=O |  |
| 17 |  | CC1(C)CCCC(C)(C)N1Cc1ccc(-c2cc(C(N)=O)c(NC(N)=O)s2)cc1 |  |
| 100 | > 12500 | CCN(CC)CCOc1ccc(-c2cc(C(=O)Nc3cccnc3)c(NC(N)=O)s2)cc1 |  |
| 100 | > 12500 | CCN(CC)CCOc1ccc(-c2cc(C(=O)NC3CCNC3)c(NC(N)=O)s2)cc1 (stereo unspecified) |  |
| 35 | > 12500 | CCN(CC)CCOc1ccc(-c2cc(C(=O)NC3CCNCC3)c(NC(N)=O)s2)cc1 |  |
| 6 | 80 | N#Cc1ccc(-c2cc(C(=O)N[C@H]3CCCNC3)c(NC(N)=O)s2)cc1 |  |
| 19 | 170 | NC(=O)Nc1sc(-c2ccc(C(F)(F)F)cc2)cc1C(=O)N[C@H]1CCCNC1 |  |
| 10 | 40 | NC(=O)Nc1sc(-c2ccc(Cl)cc2)cc1C(=O)N[C@H]1CCCNC1 |  |
| 5 | 8100 | NC(=O)Nc1sc(-c2cccc(C(N)=O)c2)cc1C(=O)N[C@H]1CCCNC1 |  |
| 100 | 2100 | NC(=O)Nc1sc(-c2ccccc2)cc1C(=O)NC[C@H]1CCCNC1 |  |
| 100 | 6200 | NC(=O)Nc1sc(-c2ccccc2)cc1C(=O)NC[C@@H]1CCCNC1 |  |
| 3 | 110 | NC(=O)Nc1sc(-c2ccccc2)cc1C(=O)N[C@@H]1CCCCNC1 |  |
| 11 | 130 | NC(=O)Nc1sc(-c2ccc(C(=O)N3CCCCC3)cc2)cc1C(=O)N[C@H]1CCCNC1 |  |
| 13 | 920 | NC(=O)Nc1sc(-c2ccc(N)cc2)cc1C(=O)N[C@H]1CCCNC1 |  |

| IC50 [1] [nM] | EC50 (HT-29; Homo sapiens, HT-29) [nM] | Compound | other results |
| --- | --- | --- | --- |
| 9 | 4300 | CNC(=O)c1ccc(-c2cc(C(=O)N[C@H]3CCCNC3)c(NC(N)=O)s2)cc1 |  |
| 41 | 2200 | CS(=O)(=O)Nc1ccc(-c2cc(C(=O)N[C@H]3CCCNC3)c(NC(N)=O)s2)cc1 |  |
| 7 | 60 | CC(=O)c1ccc(-c2cc(C(=O)N[C@H]3CCCNC3)c(NC(N)=O)s2)cc1 |  |
| 41 | 90 | CN(C)c1ccc(-c2cc(C(=O)N[C@H]3CCCNC3)c(NC(N)=O)s2)cc1 |  |
| 10 | 610 | NC(=O)Nc1sc(-c2ccc(C(=O)N3CCOCC3)cc2)cc1C(=O)N[C@H]1CCCNC1 |  |
| 8 | 1800 | CC(=O)Nc1cccc(-c2cc(C(=O)N[C@H]3CCCNC3)c(NC(N)=O)s2)c1 |  |
| 37 | 270 | NC(=O)Nc1sc(-c2ccc(CN3CCCCC3)cc2)cc1C(N)=O |  |
| 30 | 960 | NCCNC(=O)c1cc(-c2ccccc2)sc1NC(N)=O |  |
| 29 |  | COc1ccc(CNCc2ccc(-c3cc(C(N)=O)c(NC(N)=O)s3)cc2)cc1 |  |
| 10 | 70 | Cc1ccc(-c2cc(C(=O)N[C@H]3CCCNC3)c(NC(N)=O)s2)cc1 |  |
| 14 | 40 | NC(=O)Nc1sc(-c2cccc(Cl)c2)cc1C(=O)N[C@H]1CCCNC1 |  |
| 41 |  | CN1CCN(Cc2ccc(-c3cc(C(N)=O)c(NC(N)=O)s3)cc2)CC1 |  |
| 9 | 30 | NC(=O)Nc1sc(-c2ccc(F)cc2)cc1C(=O)N[C@H]1CCCNC1 |  |
| < 10 | 1100 | CCN(CC)CCOc1cccc(-c2cc(C(=O)N[C@H]3CCCNC3)c(NC(N)=O)s2)c1 |  |
| 5 | 3200 | NC(=O)Nc1sc(-c2ccc(C(N)=O)cc2)cc1C(=O)N[C@H]1CCCNC1 |  |
| 3 | < 8 | NC(=O)Nc1sc(-c2cccs2)cc1C(=O)N[C@H]1CCCNC1 |  |
| 6 | < 9 | NC(=O)Nc1sc(-c2ccsc2)cc1C(=O)N[C@H]1CCCNC1 |  |
| 6 | 200 | CS(=O)(=O)c1ccc(-c2cc(C(=O)N[C@H]3CCCNC3)c(NC(N)=O)s2)cc1 |  |
| 9 | 320 | CN(C)C(=O)c1ccc(-c2cc(C(=O)N[C@H]3CCCNC3)c(NC(N)=O)s2)cc1 |  |
| 10 | 2600 | CCN(CC)CCOc1cccc(-c2cc(C(=O)NC3CCCNC3)c(NC(N)=O)s2)c1 (racemic) |  |
